Data from patent US9303033B2, “Pyrazolopyrimidines and related heterocycles as CK2 inhibitors” (SENHWA BIOSCIENCES, INC., priority 2009, dated 2016).
Like-named read-outs stand apart in the source and are kept apart here.

How the values were obtained:
[1] = target: CK2 ααββ (Homo sapiens (Human), UniProt P68400); experiment: CK2 assay (cell-free, 33P-ATP, phosphocellulose filter plate); format: biochemical
[2] = target: recombinant PIM-1 (Homo sapiens (Human), UniProt P11309); experiment: PIM-1 assay (33P-ATP filter binding); format: biochemical; conditions: read-out: PIM1: IC50 (30 μM ATP)
Sequence of recombinant PIM-1 (P11309 whole entry): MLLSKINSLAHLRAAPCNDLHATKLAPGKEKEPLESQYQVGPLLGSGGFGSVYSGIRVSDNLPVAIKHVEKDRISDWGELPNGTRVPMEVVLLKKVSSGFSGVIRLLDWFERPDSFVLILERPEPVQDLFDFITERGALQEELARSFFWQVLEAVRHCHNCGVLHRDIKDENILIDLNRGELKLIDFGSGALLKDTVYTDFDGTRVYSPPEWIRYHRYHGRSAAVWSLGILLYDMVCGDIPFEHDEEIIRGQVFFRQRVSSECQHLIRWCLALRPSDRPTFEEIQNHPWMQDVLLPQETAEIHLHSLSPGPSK

[3] = target: recombinant human PIM2 (Homo sapiens (Human), UniProt Q9P1W9); experiment: PIM-2 assay (33P-ATP filter binding); format: biochemical; conditions: for PIM2: % inh […]: at […] compound
Sequence of recombinant human PIM2 (Q9P1W9 whole entry): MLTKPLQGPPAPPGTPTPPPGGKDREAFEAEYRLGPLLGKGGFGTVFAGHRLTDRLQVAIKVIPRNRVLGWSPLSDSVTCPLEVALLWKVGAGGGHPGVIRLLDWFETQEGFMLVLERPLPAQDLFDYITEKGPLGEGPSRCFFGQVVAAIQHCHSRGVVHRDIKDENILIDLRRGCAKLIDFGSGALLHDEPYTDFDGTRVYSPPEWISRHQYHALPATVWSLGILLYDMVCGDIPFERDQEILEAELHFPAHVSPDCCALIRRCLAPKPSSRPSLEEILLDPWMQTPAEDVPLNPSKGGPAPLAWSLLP

[4] = test system: MDAMB453; experiment: Cell proliferation assay with Alamar Blue (AB), MDAMB453; format: cell-based
Method: (§1) A representative cell-proliferation assay protocol using Alamar Blue dye (stored at 4° C., use 20 ul per well) is described hereafter.
(§2) a. Split and trypsinize cells.
(§3) b. Count cells using hemocytometer.
(§4) c. Plate 4,000-5,000 cells per well in 100 μl of medium and seed into a 96-well plate according to the following plate layout. Add cell culture medium only to wells B10 to B12.
(§5) d. Add 100 μl of 2× drug dilution to each well in a concentration shown in the plate layout above. […] Total volume is 200 μl/well.
(§6) e. Incubate four (4) days at 37° C., 5% CO2 in a humidified incubator.
(§7) f. Add […] Alamar Blue reagent to each well.
(§8) g. Incubate for four (4) hours at 37° C., 5% CO2 in a humidified incubator.
(§9) h. Record fluorescence at an excitation wavelength of 544 nm and emission wavelength of 590 nm using a microplate reader.
(§10) In the assays, cells are cultured with a test compound for approximately four days, the dye is then added to the cells and fluorescence of […] dye is detected after approximately four hours. Different types of cells can be utilized in the assays (e.g., HCT-116 human colorectal carcinoma cells, PC-3 human prostatic cancer cells, MDA-MB231 human breast cancer cells, K-562 human chronic myelogenous leukemia (CML) cells, MiaPaca human pancreatic carcinoma cells, MV-4 human acute myeloid leukemia cells, and BxPC3 human pancreatic adenocarcinoma cells).

[5] = test system: BxPC3 human pancreatic adenocarcinoma cells; experiment: Cell proliferation assay with Alamar Blue (AB), BxPC3; format: cell-based
Method: as §1, §2, §3, §4, §5, §6, §7, §8, §9, §10

[6] = PIM2: IC50 (5 μM ATP), 5 μM ATP
[7] = Homo sapiens, MDA-MB-453, MDAMB453 cells, read-out: AB: MDAMB453
[8] = Homo sapiens, BXPC-3, read-out: AB: BxPC3
[9] = MDAMB453 cells, read-out: AB: MDAMB453 IC50
[10] = read-out: PIM2: IC50 (5 μM ATP), 5 μM ATP
[11] = MDAMB453 cells, read-out: AB: MDAMB453

Sequence of CK2 ααββ (P68400 whole entry): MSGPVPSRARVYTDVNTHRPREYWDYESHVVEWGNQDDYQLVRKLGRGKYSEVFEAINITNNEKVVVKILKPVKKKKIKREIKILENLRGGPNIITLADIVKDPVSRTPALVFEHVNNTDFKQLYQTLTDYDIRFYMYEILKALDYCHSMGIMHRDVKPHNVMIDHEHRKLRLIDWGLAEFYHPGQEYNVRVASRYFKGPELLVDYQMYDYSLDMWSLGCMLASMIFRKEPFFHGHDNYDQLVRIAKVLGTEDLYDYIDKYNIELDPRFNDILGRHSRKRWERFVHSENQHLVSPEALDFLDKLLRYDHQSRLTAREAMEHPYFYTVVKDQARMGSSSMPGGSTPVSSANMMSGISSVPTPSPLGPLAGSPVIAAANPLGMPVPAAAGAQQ
Sequence of CK2 ααββ (P67870 whole entry partner): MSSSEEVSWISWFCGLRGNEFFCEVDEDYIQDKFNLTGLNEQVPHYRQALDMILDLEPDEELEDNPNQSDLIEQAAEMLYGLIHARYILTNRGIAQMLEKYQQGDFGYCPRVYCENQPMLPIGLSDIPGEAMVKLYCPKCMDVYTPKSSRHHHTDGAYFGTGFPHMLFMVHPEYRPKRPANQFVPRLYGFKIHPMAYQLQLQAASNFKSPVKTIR

Row | IC50 [1] | IC50 [3, 6] | IC50 [4, 7] | IC50 [5, 8] | Structure (SMILES) | also measured
1 | < 1000 nM | 1430 nM | – | – | CCN(CC)c1cc(NC2CC2)n2ncc(/C=C3\SC(=O)NC3=O)c2n1 [Example L3] | IC50 [2]: > 2500 nM
2 | < 100 nM | 876 nM | – | – | CN(C)c1cc(NC2CC2)n2ncc(/C=C3\SC(=O)NC3=O)c2n1 [Example I3] | IC50 [2]: > 2500 nM
3 | < 1000 nM | > 2500 nM | – | – | O=C1NC(=O)/C(=C/c2cnn3c(NC4CC4)cc(Nc4cccc(Cl)c4)nc23)S1 [Example J3] | IC50 [2]: > 2500 nM
4 | < 10 nM | 998 nM | 2490 nM | 6900 nM | O=C1NC(=O)/C(=C/c2cnn3c(NC4CC4)cc(NCC4CC4)nc23)N1 [Example T2] | –
5 | < 10 nM | 867 nM | 4750 nM | > 30000 nM | O=C1NC(=O)/C(=C/c2cnn3c(NC4CC4)cc(-c4cccc(F)c4)nc23)N1 [Example J4] | –
6 | < 10 nM | 614 nM | 330 nM | 10600 nM | O=C1NC(=O)/C(=C/c2cnn3c(NC4CC4)cc(-c4cccc(O)c4)nc23)N1 [Example S3] | –
7 | < 10 nM | 359 nM | 6680 nM | 4870 nM | CC(C)(C)CC(=O)Nc1cc(NC2CC2)n2ncc(/C=C3\NC(=O)NC3=O)c2n1 [Example M2] | –
8 | < 10 nM | 256 nM | 1070 nM | 745 nM | O=C1NC(=O)/C(=C/c2cnn3c(NC4CC4)cc(-c4ccncc4)nc23)N1 [Example Q4] | –
9 | < 10 nM | > 2500 nM | 1260 nM | 8130 nM | O=C1NC(=O)/C(=C/c2cnn3c(NC4CC4)cc(-c4cccnc4)nc23)N1 [Example U4] | –
10 | < 10 nM | > 2500 nM | 3740 nM | 3680 nM | NC(=O)c1cccc(-c2cc(NC3CC3)n3ncc(/C=C4\NC(=O)NC4=O)c3n2)c1 [Example U3] | –
11 | < 100 nM | > 2500 nM | 1710 nM | 2740 nM | CCCS(=O)(=O)Nc1cccc(-c2cc(NC3CC3)n3ncc(/C=C4\NC(=O)NC4=O)c3n2)c1 [Example T4] | –
12 | < 1000 nM | > 2500 nM | – | – | O=C1NC(=O)/C(=C/c2cnn3c(NC4CC4)cc(NCCF)nc23)S1 [Example N3] | IC50 [2]: > 2500 nM
13 | < 10 nM | 2080 nM | 12300 nM | > 30000 nM | CC(=O)c1cccc(-c2cc(NC3CC3)n3ncc(/C=C4\NC(=O)NC4=O)c3n2)c1 [Example W4] | –
14 | < 1000 nM | 1390 nM | – | – | O=C1NC(=O)/C(=C/c2cnn3c(NC4CC4)cc(N4CCOCC4)nc23)S1 [Example K3] | IC50 [2]: 918 nM
15 | < 10 nM | > 2500 nM | 7710 nM | 5660 nM | COc1ccc(Nc2cc(NC3CC3)n3ncc(/C=C4\NC(=O)NC4=O)c3n2)cc1Cl [Example K1] | –
16 | < 100 nM | > 2500 nM | 683 nM | 1900 nM | CN(C)c1ccc(-c2cc(NC3CC3)n3ncc(/C=C4\NC(=O)NC4=O)c3n2)cc1 [Example I4] | –
17 | < 100 nM | 1440 nM | – | – | CN1CCC(N(C)c2cc(NC3CC3)n3ncc(/C=C4\SC(=O)NC4=O)c3n2)C1 (stereo not drawn) [Example M3] | IC50 [2]: 1450 nM
18 | < 100 nM | 1310 nM | 1940 nM | 2580 nM | O=C1NC(=O)/C(=C/c2cnn3c(NC4CC4)cc(-c4cccc(OCC5=NCCN5)c4)nc23)N1 [Example K4] | –
19 | < 1000 nM | 704 nM | 708 nM | 2560 nM | O=C1NC(=O)/C(=C/c2cnn3c(NCc4cccnc4)cc(Nc4cccc(Cl)c4)nc23)N1 [Example I6] | –
20 | < 100 nM | > 2500 nM | 7420 nM | 9210 nM | Cc1ccc(Nc2cc(NCC3CC3)n3ncc(/C=C4\NC(=O)NC4=O)c3n2)nc1 [Example W1] | –

More lines, now with the values behind:

Row | Structure (SMILES) | IC50 [1] | IC50 [3, 6] | IC50 [4, 7] | IC50 [5, 8] | also measured
21 | CC(C)CNc1cc(NC2CC2)n2ncc(/C=C3\SC(=O)NC3=O)c2n1 [Example F3] | < 1000 nM | 1640 nM | – | – | IC50 [2]: 2060 nM
22 | CN1C(=O)S/C(=C\c2cnn3c(NC4CC4)cc(Nc4cccc(Cl)c4)nc23)C1=O [Example P3] | < 1000 nM | > 2500 nM | – | – | IC50 [2]: > 2500 nM
23 | CCN1CCCC1CNc1cc(NC2CC2)n2ncc(/C=C3\SC(=O)NC3=O)c2n1 (stereo not drawn) [Example G3] | < 100 nM | 1850 nM | 7700 nM | 9450 nM | IC50 [2]: 2060 nM
24 | CC(O)CNc1cc(NC2CC2)n2ncc(/C=C3\SC(=O)NC3=O)c2n1 (stereo not drawn) [Example H3] | < 1000 nM | > 2500 nM | – | – | IC50 [2]: 2390 nM
25 | CN(C)CCNC(=O)c1cc(-c2cc(NC3CC3)n3ncc(/C=C4\NC(=O)NC4=O)c3n2)ccc1F [Example G5] | < 10 nM | > 2500 nM | 435 nM | 1840 nM | –
26 | CN1C(=O)NC(=Cc2cnn3c(NC4CC4)cc(Nc4ccccc4F)nc23)C1=O [Example F42] | < 100 nM | – | – | – | PIM2: % inh […] [3]: −17.549%; IC50 [4, 9]: 29100 nM; IC50 ([5]; read-out: AB: BxPC3 IC50): > 30000 nM
27 | CN1C(=O)NC(=Cc2cnn3c(NC4CC4)cc(Nc4ccc(C#N)cc4)nc23)C1=O [Example D42] | < 100 nM | – | – | – | PIM2: % inh […] [3]: −39.275%; IC50 [4, 9]: 693 nM; IC50 ([5]; read-out: AB: BxPC3 IC50): 2800 nM
28 | O=C1NC(=O)/C(=C/c2cnn3c(NC4CC4)cc(-c4cccc(OCC5CC5)c4)nc23)N1 [Example F4] | < 10 nM | > 2500 nM | 1300 nM | 6590 nM | –
29 | O=C1NC(=O)/C(=C/c2cnn3c(NC4CC4)cc(-c4cccc(OCCN5CCOCC5)c4)nc23)N1 [Example A4] | < 10 nM | > 2500 nM | > 30000 nM | > 30000 nM | –
30 | N#Cc1cccc(Cc2cc(NC3CC3)n3ncc(/C=C4\NC(=O)NC4=O)c3n2)c1 | < 10 nM | – | > 30000 nM | 19700 nM | IC50 ([3]; 5 um ATP, read-out: PIM2: IC50 (5 um ATP)): > 2500 nM
31 | CC1CN(C(C)c2cccc(Nc3cc(NC4CC4)n4ncc(/C=C5\NC(=O)NC5=O)c4n3)c2)CC(C)O1 (stereo not drawn) [Example G1] | < 10 nM | > 2500 nM | 10000 nM | > 30000 nM | –
32 | Cc1c(Nc2ccc(C#N)cc2Cl)nc2c(C=C3NC(=O)NC3=O)cnn2c1NC1CC1 [Example D46] | < 10 nM | – | – | – | PIM2: % inh […] [3]: 53.934%; IC50 [4, 9]: 6240 nM; IC50 ([5]; read-out: AB: BxPC3 IC50): 29900 nM
33 | O=C1NC(=O)/C(=C/c2cnn3c(NC4CC4)cc(Nc4cccc(Cl)c4)nc23)N1 [Example C1] | < 10 nM | > 2500 nM | 1040 nM | 15000 nM | IC50 ([3]; read-out: PIM2: IC50): 1300 nM
34 | O=C1NC(=O)/C(=C/c2cnn3c(NC4CC4)cc(Nc4cccc(F)c4)nc23)N1 [Example D1] | < 10 nM | 2200 nM | 1340 nM | 4070 nM | –
35 | O=C1NC(=O)C(=Cc2cnn3c(NC4CC4)cc(-c4csc(CNC5CCCC5)c4)nc23)N1 [Compound B14] | < 10 nM | – | – | – | IC50 [3, 10]: 1450 nM; IC50 [4, 11]: 1610 nM; IC50 ([5]; read-out: AB: BxPC3): 1000 nM
36 | CC(C)(C)OC(=O)N1CCN(C(=O)c2cccc(Nc3cc(Nc4cccc(Cl)c4)nc4c(/C=C5\NC(=O)NC5=O)cnn34)c2)CC1 [Example E7] | < 10 nM | 2020 nM | 364 nM | 3010 nM | –
37 | O=C1NC(=O)C(=Cc2cnn3c(NC4CC4)cc(-c4csc(CN5CCCC5)c4)nc23)N1 [Compound Y13] | < 10 nM | – | – | – | IC50 [3, 10]: > 2500 nM; IC50 [4, 11]: 1390 nM; IC50 ([5]; read-out: AB: BxPC3): 929 nM
